# From article PMC9325670, “Limited nutrient availability in the tumor microenvironment renders pancreatic tumors sensitive to allosteric IDH1 inhibitors” (Nature Cancer, 2022)
# Target: T1, wild-type isocitrate dehydrogenase 1 (wtIDH1) (Homo sapiens, UniProt O75874)
# T1 construct: gene IDH1; human recombinant IDH1
# Experiment: cell-free fluorometric NADPH formation assay at […] Mg2+
# Format: biochemical
# T1 sequence (O75874 2-414): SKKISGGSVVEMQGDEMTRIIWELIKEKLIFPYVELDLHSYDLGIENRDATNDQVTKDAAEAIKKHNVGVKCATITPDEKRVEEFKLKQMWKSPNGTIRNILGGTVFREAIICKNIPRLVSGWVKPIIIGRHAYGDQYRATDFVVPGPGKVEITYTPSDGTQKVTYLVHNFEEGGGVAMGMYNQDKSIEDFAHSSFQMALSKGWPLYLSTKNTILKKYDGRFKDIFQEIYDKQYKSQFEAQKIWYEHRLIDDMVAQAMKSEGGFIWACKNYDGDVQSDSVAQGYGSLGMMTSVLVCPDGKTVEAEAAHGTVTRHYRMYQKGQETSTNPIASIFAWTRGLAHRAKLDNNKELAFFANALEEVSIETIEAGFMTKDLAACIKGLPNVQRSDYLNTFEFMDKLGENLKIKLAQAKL
smiles,measurement,value
CC1(C)CN(C(=O)c2cn[nH]c2)Cc2c(C(=O)Nc3ccc(F)cc3)nn(Cc3ccc(C(F)(F)F)cc3)c21 [FSM-3-002],IC50,0.0914 µM
